Measurements taken from patent US10577340B1, “Beraprost-314d crystals and methods for preparation thereof” (CHIROGATE INTERNATIONAL INC., priority 2018, dated 2020).
Entries after “also recorded” stand apart in the source; their conditions may differ.

What was measured:
[1] = Crystalline form transformation from Form III to Form II at room temperature; format: physicochemical; details: FIG. 5
Description: (§1) X-ray Powder Diffraction (XRPD) Analysis: The XRPD patterns were collected on a Bruker D2 PHASER diffractometer with fixed divergence slits and ID LYNXEYE detector. The samples (ca. 100 mg) were flatly placed on a sample holder. The prepared samples were analyzed over a […] from 5° to 50° with step size of 0.02 degrees and step time of 1 second using CuKα radiation at a power of 10 mA and 30 kV. The CuKβ radiation was removed by a divergent beam nickel filter.
The Beraprost-314d crystal Form III (0.5 g, from Example 5) was placed in a glass vial, and isothermal at room temperature for 1 day.

[2] = Storage stability of the crystalline form (crystalline form change, degradation products); format: physicochemical; details: six months
Description: as §1

time until conversion to Beraprost-314d crystal Form II ([1]; keeping at room temperature) | Substance | crystalline form transformation ([1]; glass vial, isothermal at room temperature for 1 day) | stability during storage (other crystalline forms, degraded products) ([2]; normal storage temperatures (about −20° C.)) | stability during storage (other crystalline forms) ([2]; room temperature (about 20 to 25° C.))
≤ 1 days | Beraprost-314d [Beraprost-314d crystal Form III] | completely converted to Beraprost-314d crystal Form II |  | 
 | Beraprost-314d [Beraprost-314d crystal Form II] |  | no other crystalline forms or degraded products of impurities; also recorded: good stability with no other crystalline forms | good stability with no other crystalline forms
